One series has as its system DA uptake. As to the kind of experiment: DA uptake into rat corpora striatum synaptosomes. Format: biochemical.
A further series relates to NE uptake. In words: NE uptake, rat hypothalamus synaptosomes. Format: biochemical.
For a further series, the target named is T1, NE transporter (Rattus norvegicus, UniProt Q63380).
T1 construct: Rat cerebral cortex; from tissue; host or cells: rat cerebral cortex
As to the kind of experiment: NE transporter binding, rat cerebral cortex, [3H]nisoxetine. The following applies: Table 2, ten concentrations; read-out: Transporter and Muscarinic Receptor Binding IC50 NE.

Series [1] relates to cytochrome P450 enzymes (P450 4A, P4502C19, P450 2D6, P4501A2, P450 2C9, P450 2E1). The following applies: in vitro; not by more than the stated degree; cited from earlier work.
The subject of series [2] is receptors for acetylcholine, histamine, norepinephrine, dopamine; monoamine oxidase; dopamine and norepinephrine reuptake sites. The following applies: Willets, 1999; cited from earlier work.
The target of a further series is T2, DA transporter (h) (Homo sapiens, UniProt Q01959).
T2 construct: expressed in transfected cells; host or cells: CHO cells
In words: DA transporter (h) binding, [3H]GBR12935.

Another series addresses T3, NE transporter (h) (Homo sapiens, UniProt P23975).
T3 construct: expressed in transfected cells; host or cells: MDCK cells
As to the kind of experiment: NE transporter (h) binding, [3H]nisoxetine.

A further series deals with 5-HT uptake. As to the kind of experiment: 5-HT uptake into rat brain synaptosomes. The format is biochemical.
Another series has as its target T4, 5-HT transporter (h) (Homo sapiens, UniProt P31645).
T4 construct: expressed in transfected cells; host or cells: HEK 293 cells
Format: binding.

Another series has as its target T5, 5-HT transporter (Rattus norvegicus, UniProt P31652).
T5 construct: Rat cerebral cortex; from tissue; host or cells: rat cerebral cortex
As to the kind of experiment: 5-HT transporter binding, rat cerebral cortex, [3H]paroxetine. The following applies: Table 2, ten concentrations; read-out: Transporter and Muscarinic Receptor Binding IC50 5-HT rat.

A further series concerns the target T6, DA transporter (Rattus norvegicus, UniProt P23977).
T6 construct: Rat striatum; from tissue; host or cells: rat striatum
As to the kind of experiment: DA transporter binding, rat striatum, [3H]GBR12935. The following applies: Table 2, ten concentrations; read-out: Transporter and Muscarinic Receptor Binding IC50 DA.

The mark [3] stands for this setting: Table 3, rat brain synaptosomes, read-out: Monoamine Uptake IC50 DA.
[4] abbreviates: Table 3, rat brain synaptosomes, read-out: Monoamine Uptake IC50 NE.
Where [5] appears, read: Table 1, rat brain synaptosomes, read-out: Functional Uptake IC50 DA.
The mark [6] stands for this setting: Table 1, rat brain synaptosomes, read-out: Functional Uptake IC50 NE.
[7] abbreviates: Table 1, racemic forms, duplicate, read-out: Transporter Binding IC50 DA.
Setting [8] is: Table 1, racemic forms, duplicate, read-out: Transporter Binding IC50 NE.
The mark [9] stands for this setting: Table 1, rat brain synaptosomes, read-out: Functional Uptake IC50 5-HT.
Where [10] appears, read: Table 3, human recombinant CHO cells, [3H]-GBR 12935, read-out: Human Transporter Binding IC50 DA.
[11] abbreviates: Table 3, human recombinant MDCK cells, [3H]-nisoxetine, read-out: Human Transporter Binding IC50 NE.
Setting [12] is: Table 3, rat brain synaptosomes, read-out: Monoamine Uptake IC50 5-HT.
Where [13] appears, read: Table 2, ten concentrations, read-out: Transporter and Muscarinic Receptor Binding IC50 5-HT human.

“And” between values parts separate entries of the source, which are not always exact repeats. Identical values can stand only once. Like-named read-outs stand apart in the source and are kept apart here.

T2 sequence (Q01959 whole entry): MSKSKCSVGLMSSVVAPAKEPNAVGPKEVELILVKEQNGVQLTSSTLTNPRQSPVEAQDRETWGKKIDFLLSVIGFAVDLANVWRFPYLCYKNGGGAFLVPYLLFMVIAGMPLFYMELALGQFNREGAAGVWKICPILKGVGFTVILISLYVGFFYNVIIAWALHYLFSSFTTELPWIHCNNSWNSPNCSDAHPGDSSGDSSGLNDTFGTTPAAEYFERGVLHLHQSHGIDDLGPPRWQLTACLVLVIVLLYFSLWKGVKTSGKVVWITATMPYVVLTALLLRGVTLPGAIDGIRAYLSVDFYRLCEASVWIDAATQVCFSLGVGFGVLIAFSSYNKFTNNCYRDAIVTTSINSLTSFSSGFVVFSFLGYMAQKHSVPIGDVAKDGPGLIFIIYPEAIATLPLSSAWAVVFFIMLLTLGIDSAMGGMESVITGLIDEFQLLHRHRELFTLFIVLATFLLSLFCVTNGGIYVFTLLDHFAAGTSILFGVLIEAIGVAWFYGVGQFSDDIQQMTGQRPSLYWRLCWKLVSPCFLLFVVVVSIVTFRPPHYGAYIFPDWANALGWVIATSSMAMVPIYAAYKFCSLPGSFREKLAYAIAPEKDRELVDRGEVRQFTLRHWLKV
T3 sequence (P23975 whole entry): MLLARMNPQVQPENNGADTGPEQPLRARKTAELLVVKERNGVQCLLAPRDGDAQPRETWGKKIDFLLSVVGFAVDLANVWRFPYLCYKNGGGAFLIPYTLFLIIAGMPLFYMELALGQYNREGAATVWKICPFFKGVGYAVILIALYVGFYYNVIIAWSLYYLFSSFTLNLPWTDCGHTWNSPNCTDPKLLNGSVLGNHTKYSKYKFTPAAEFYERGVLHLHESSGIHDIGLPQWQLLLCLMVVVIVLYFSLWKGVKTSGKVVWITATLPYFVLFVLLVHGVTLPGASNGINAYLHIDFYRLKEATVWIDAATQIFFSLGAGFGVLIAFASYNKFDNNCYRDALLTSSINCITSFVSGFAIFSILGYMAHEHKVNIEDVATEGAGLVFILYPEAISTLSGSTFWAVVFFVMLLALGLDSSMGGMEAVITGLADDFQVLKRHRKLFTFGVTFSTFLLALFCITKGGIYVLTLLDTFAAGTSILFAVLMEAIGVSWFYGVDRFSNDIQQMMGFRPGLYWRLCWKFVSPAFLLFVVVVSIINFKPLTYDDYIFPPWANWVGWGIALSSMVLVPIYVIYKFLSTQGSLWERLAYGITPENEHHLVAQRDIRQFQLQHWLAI
T6 sequence (P23977 whole entry): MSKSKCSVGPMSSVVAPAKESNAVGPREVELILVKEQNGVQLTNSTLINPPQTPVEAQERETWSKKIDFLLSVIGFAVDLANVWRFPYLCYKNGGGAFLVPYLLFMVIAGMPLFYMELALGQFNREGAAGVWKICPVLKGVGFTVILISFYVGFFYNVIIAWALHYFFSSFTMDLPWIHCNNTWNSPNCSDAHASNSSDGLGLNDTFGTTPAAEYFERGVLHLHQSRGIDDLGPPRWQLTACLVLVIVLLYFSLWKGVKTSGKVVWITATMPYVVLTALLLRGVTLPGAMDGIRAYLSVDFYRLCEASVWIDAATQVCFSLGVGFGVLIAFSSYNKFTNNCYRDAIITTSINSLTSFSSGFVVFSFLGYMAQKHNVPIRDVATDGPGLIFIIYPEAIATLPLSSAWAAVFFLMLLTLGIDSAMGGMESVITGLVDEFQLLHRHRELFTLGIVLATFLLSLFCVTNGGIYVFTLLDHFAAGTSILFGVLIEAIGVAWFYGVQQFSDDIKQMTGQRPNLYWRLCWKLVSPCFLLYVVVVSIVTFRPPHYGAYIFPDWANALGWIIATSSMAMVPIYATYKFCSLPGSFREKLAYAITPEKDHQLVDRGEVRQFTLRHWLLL
T4 sequence (P31645 whole entry): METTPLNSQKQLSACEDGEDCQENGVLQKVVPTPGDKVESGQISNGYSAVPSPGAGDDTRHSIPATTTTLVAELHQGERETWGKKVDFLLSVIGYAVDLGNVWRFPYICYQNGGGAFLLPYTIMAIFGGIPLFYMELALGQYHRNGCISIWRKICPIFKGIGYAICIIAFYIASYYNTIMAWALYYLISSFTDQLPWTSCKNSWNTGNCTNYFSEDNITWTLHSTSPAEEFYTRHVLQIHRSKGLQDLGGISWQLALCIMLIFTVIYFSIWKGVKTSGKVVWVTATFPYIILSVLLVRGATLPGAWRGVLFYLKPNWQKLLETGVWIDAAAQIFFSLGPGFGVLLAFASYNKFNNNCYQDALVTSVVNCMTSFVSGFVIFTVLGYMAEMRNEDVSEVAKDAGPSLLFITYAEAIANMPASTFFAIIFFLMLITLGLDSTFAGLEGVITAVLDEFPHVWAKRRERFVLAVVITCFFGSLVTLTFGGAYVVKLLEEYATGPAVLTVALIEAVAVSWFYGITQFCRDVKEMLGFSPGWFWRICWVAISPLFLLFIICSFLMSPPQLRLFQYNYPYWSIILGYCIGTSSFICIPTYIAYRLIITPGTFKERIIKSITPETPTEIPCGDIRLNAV
T5 sequence (P31652 whole entry): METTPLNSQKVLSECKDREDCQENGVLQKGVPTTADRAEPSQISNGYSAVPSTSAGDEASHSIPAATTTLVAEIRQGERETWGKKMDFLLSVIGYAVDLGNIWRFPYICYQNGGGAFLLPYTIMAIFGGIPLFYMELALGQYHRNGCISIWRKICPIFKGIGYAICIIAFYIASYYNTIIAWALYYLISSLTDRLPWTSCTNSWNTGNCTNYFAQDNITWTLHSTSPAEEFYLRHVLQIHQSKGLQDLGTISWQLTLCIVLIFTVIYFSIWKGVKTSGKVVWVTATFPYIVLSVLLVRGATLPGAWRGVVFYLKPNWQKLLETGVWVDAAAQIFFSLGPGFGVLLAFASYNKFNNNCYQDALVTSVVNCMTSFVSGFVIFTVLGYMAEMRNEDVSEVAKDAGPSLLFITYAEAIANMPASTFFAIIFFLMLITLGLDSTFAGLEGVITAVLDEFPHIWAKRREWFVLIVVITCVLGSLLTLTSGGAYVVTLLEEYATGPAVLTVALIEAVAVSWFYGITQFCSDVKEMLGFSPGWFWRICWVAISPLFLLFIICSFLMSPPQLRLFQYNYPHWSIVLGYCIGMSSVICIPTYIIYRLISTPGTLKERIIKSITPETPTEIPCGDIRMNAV
T1 sequence (Q63380 1-617): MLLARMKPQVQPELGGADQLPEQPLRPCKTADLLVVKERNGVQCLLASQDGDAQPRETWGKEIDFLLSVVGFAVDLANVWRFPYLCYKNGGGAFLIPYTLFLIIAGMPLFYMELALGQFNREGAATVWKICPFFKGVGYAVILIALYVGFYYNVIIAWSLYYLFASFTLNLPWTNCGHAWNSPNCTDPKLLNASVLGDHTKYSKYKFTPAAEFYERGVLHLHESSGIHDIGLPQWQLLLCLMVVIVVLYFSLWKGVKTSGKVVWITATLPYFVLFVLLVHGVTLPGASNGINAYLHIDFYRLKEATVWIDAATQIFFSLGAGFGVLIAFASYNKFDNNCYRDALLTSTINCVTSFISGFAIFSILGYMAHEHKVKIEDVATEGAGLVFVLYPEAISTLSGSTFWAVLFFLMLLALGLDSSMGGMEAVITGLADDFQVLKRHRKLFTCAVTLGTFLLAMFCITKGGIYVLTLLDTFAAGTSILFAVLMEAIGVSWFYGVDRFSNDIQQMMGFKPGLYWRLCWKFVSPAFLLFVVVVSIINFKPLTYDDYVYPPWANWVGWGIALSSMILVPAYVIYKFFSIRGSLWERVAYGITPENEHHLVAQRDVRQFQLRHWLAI

As for `CN(C)CCCC1(c2ccc(F)cc2)OCc2cc(C#N)ccc21` (racemic) [Citalopram HBr (racemic), reference compound], the results for the 50% inhibitory concentration (IC50) in the series with DA uptake (setting [3]), in the series on NE uptake (setting [4]) and on NE transporter were 13 µM, 4.9 µM and 4.74 µM, respectively.

As to `CN(C)CCCC1(c2ccc(F)cc2)OCc2cc(C#N)ccc21` (racemic) [Racemic citalopram, (±)-1-(3-dimethylaminopropyl)-1-(4-fluorophenyl)-1,3-dihydroisobenzofuran-5-carbonitrile, reference compound], the IC50 came to 17 µM in the series on DA uptake (setting [5]) and 3.6 µM with NE uptake (setting [6]). For the same compound, in series [1], the “inhibition of the activity of cytochrome P450 enzymes” value is given as “mild degree”. Further, the “affinity for receptors for various neurotransmitters, enzymes and other reuptake sites” value in series [2] was “negligible affinity”.

On to `CNCCCC1(c2ccc(F)cc2)OCc2cc(C#N)ccc21` (racemic) [Racemic desmethylcitalopram], for which the IC50 was 3.73 µM at DA transporter (h) (setting [7]); 15.5 µM at NE transporter (h) (setting [8]); 0.013 µM with 5-HT uptake (setting [9]); 38 µM with DA uptake (setting [5]); 1.2 µM with NE uptake (setting [6]). Besides, the “inhibition of the activity of cytochrome P450 enzymes” value in [1] is “mild degree”.

Turning to `N#Cc1ccc2c(c1)COC2(CCCN)c1ccc(F)cc1` (racemic) [Racemic didesmethylcitalopram, 3-5-Cyano-1-(4-fluorophenyl)-1,3-dihydro-isobenzofuran-1-yl-propyl amine], the IC50 is 0.085 µM at 5-HT transporter (h) (Table 1, racemic forms, duplicate, read-out: Transporter Binding IC50 5-HT); 13.2 µM on DA transporter (h) (setting [7]); 21.2 µM on NE transporter (h) (setting [8]); 0.038 µM with 5-HT uptake (setting [9]); 8.9 µM in the series on DA uptake (setting [5]); 1.6 µM in the series on NE uptake (setting [6]).

`CNCCC[C@]1(c2ccc(F)cc2)OCc2cc(C#N)ccc21` [(R)(−)-Desmethylcitalopram]: the IC50 on DA transporter (h) (setting [10]) turned out to be 37.6 µM; on NE transporter (h) (setting [11]), 0.815 µM; with 5-HT uptake (setting [12]) it was 0.11 µM; in the series with DA uptake (setting [3]), 9.4 µM; in the series on NE uptake (setting [4]) it was 1.7 µM; on 5-HT transporter it was 0.011 µM. Further, the IC50 came out at 58 µM on DA transporter and 0.92 µM at NE transporter.

As to `N#Cc1ccc2c(c1)CO[C@]2(CCCN)c1ccc(F)cc1` [(R)(−)-Didesmethylcitalopram], the 50% inhibitory concentration (IC50) at 5-HT transporter (h) (setting [13]) turned out to be 0.014 µM; at DA transporter (h) (setting [10]), 38.9 µM; at NE transporter (h) (setting [11]), 5.52 µM; in the series on 5-HT uptake (setting [12]) it was 0.13 µM; with DA uptake (setting [3]), 27 µM; in the series with NE uptake (setting [4]), 1.3 µM. Further, the figures for the half-inhibitory concentration (IC50) on 5-HT transporter, at DA transporter and at NE transporter were 0.027 µM, 14.1 µM and 3.62 µM, respectively.

As to `CNCCC[C@@]1(c2ccc(F)cc2)OCc2cc(C#N)ccc21` [(S)(+)-Desmethylcitalopram], the 50% inhibitory concentration (IC50) on DA transporter (h) (setting [10]) was 27.7 µM; at NE transporter (h) (setting [11]), 10.3 µM; with 5-HT uptake (setting [12]) it was 0.0058 µM; with DA uptake (setting [3]) it was 7.6 µM; in the series on NE uptake (setting [4]), 4.1 µM; on 5-HT transporter, 0.0013 µM. The figures for the half-maximal inhibitory concentration (IC50) on DA transporter and at NE transporter were 79.5 µM and 11.5 µM, respectively.

With `N#Cc1ccc2c(c1)CO[C@@]2(CCCN)c1ccc(F)cc1` [(S)(+)-Didesmethylcitalopram], the “fold higher affinity than its antipode, human 5-HT transporter” value on 5-HT transporter (h) is given as 16 fold. Moreover, the IC50 stood at 0.219 µM at 5-HT transporter (h) (setting [13]); 54.7 µM at DA transporter (h) (setting [10]); 24.2 µM at NE transporter (h) (setting [11]); 0.18 µM in the series on 5-HT uptake (setting [12]); 11 µM in the series with DA uptake (setting [3]); 3.3 µM in the series with NE uptake (setting [4]). The concentration for half-maximal inhibition (IC50) at 5-HT transporter turned out to be 0.019 µM; at DA transporter it was 71.1 µM; on NE transporter, 20.1 µM.

On to `CN(C)CCCN1c2ccccc2CCc2ccccc21` [Imipramine, reference compound], for which the concentration for half-maximal inhibition (IC50) was […] in the series on 5-HT uptake (setting [9]) and […] in the series with 5-HT uptake (setting [12]).

Take `CNCCCC1c2ccccc2C=Cc2ccccc21` [Protriptyline, reference compound]: the half-inhibitory concentration (IC50) is 0.0067 µM and 0.015 µM at DA transporter (h) (setting [7]); 0.001 µM in the series with DA uptake (setting [5]); 0.0023 µM with NE uptake (setting [4]).

By IC50 is commonly meant the midpoint of a concentration-inhibition curve.

Source of the values: patent US7714023B2, “Treatment or prophylaxis of migraine or headache disorders using citalopram, escitalopram or citalopram metabolites” (priority 2004, dated 2010).
